# According to EPA's ToxValDB 9.5 (doi:10.2903/j.efsa.2020.5755):
# What was measured:
# [1] = tested on: Folsomia candida; conditions: chronic/long-term; duration: 28 days; reproduction
# [2] = tested on: Daphnia magna; conditions: chronic/long-term; duration: 28 days; reproduction
# [3] = tested on: Landoltia sp.; conditions: chronic/long-term; duration: 7 days; frond number
# [4] = tested on: Rattus norvegicus; conditions: for LD50: acute, mortality
# [5] = tested on: Canidae; conditions: chronic; duration: 1 years; Dog Other
# [6] = tested on: Xenopus laevis; conditions: chronic/long-term, development
# [7] = tested on: Colinus virginianus; conditions: reproduction developmental
# [8] = tested on: Tagia sp.; conditions: chronic/long-term; growth
# [9] = tested on: Oncorhynchus mykiss; conditions: acute; duration: 96 hours; mortality
# [10] = tested on: Pimephales promelas; conditions: chronic/long-term; reproduction
# [11] = tested on: Apis mellifera; conditions: acute, mortality
# [12] = tested on: Anas platyrhynchos; conditions: reproductive
# [13] = tested on: Neomysis kadiakensis; conditions: chronic/long-term; duration: 39 days; other
# [14] = tested on: Coturnix japonica; conditions: acute; oral; mortality
# [15] = tested on: Typhlodromus pyri; test: LR50; higher = less toxic; conditions: mortality
smiles,measurement,setting,value
"S=C1NCCN1 [4,5-Dihydro-2-mercaptoimidazole]",NOEC,[1],10.6 mg/kg
same,NOEC,[2],2000 µg/L
same,NOEC,[3],960000 µg/L
same,NOAEL,[4]; chronic,2 mg/kg-day
same,NOAEL,"[4]; developmental, development",5 mg/kg-day
same,NOAEL,[4]; reproduction developmental,0.2 mg/kg-day
same,NOAEL,[5],0.2 mg/kg-day
same,NOEC,[6]; duration: 28 days,10000 µg/L
same,NOEC,[6]; duration: 90 days,1000 µg/L
same,NOEL,[7],1.8 mg/kg-day
same,NOEC,[8],24 mg/kg
"S=C1SSC2=NCCN12 [5,6-Dihydro-3H-imidazo[2,1-c]-1,2,4-dithiazole-3-thione]",LD50,[4]; oral,240 mg/kg-day
same,NOEC,[8],20 mg/kg
O=C1NCCN1 [Ethylene urea],LD50,[4]; oral,> 5000 mg/kg-day
same,NOAEL,"[4]; reproduction developmental, oral, reproduction",37 mg/kg-day
same,LC50,[9],> 122 µg/mL
S=C([S-])NCCNC(=S)[S-].S=C([S-])NCCNC(=S)[S-].[Mn+2].[Zn+2] [Mancozeb],NOEC,[10],1.35 µg/L
same,LD50,[11]; dermal,162 µg/piece
same,LD50,"[11]; oral, unspecified",141 µg/piece
same,NOEL,[12],18.6 mg/kg-day
same,NOEC,[13],1.64 µg/L
same,LD50,[4]; oral,> 2000 mg/kg-day
same,NOAEL,[4]; chronic,2 mg/kg-day
same,NOAEL,"[4]; subchronic, duration: 90 days, oral, clinical chemistry",6.8 mg/kg-day
same,LD50,[14],> 2000 mg/kg-day
same,NOEC,[8],10 mg/kg
same,LC50,[9],0.074 µg/mL
same,LR50,"[15]; chronic/long-term, duration: 14 days",107 g/ha
same,LR50,[15]; not reported,26.7 g/ha
